Where two headings read alike, the source gives them in different places.
Key:
IRAK4 = IRAK4 (Homo sapiens (Human), UniProt Q9NWZ3); assay: IRAK4 Inhibition Assay; type: biochemical; conditions: ATP 500 μM, read-out: IRAK4 IC50
Summary of the method: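 Mobility-shift readout: fluorescent substrate and phosphoproduct resolved electrophoretically on Caliper LabChip 3000 after EDTA quench (35 mM). Enzyme reaction of IRAK4, substrates and test compound ran 60 min at room temperature.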

[1] = tested on: TLR2 induced IL-6 in peripheral blood mononuclear cells (PBMCs); assay: PBMC TLR2 Induced IL-6 Assay; type: cell-based, human; conditions: IL-6 by ELISA; for IC50: read-out: Cell IC50; for EC50: read-out: Cell EC50
Summary of the method: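 Lipoteichoic acid at 10 µg/ml served as TLR2 stimulus for 5 hours, following a 30-minute compound pretreatment at 37° C. Cells were Ficoll-isolated human PBMCs, 250000 cells/well, cultured in RPMI plus 10% heat-inactivated FCS.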

[2] = Homo sapiens, PBMC, human PBMCs, lipoteichoic acid stimulated
[3] = Homo sapiens, PBMC, PBMC TLR2 Induced IL-6 Assay, lipoteichoic acid stimulation
[4] = human PBMCs, lipoteichoic acid stimulated

Sequence of IRAK4 (Q9NWZ3 whole entry, species assumed): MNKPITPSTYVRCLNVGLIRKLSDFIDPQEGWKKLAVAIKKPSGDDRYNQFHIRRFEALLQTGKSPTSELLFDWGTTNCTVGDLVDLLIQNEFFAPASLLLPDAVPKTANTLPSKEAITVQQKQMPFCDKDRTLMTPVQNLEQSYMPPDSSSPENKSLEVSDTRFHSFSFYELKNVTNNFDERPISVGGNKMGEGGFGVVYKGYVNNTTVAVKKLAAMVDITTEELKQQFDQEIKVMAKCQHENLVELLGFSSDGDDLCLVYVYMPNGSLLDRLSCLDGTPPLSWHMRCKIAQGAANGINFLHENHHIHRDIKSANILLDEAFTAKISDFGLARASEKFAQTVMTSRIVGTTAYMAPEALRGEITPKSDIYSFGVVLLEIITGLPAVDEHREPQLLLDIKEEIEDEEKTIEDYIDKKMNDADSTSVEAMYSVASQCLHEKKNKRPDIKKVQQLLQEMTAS

Row | Compound | IC50 (IRAK4; IRAK4 0.6 nM) | IC50 (IRAK4; IRAK4 Inhibition Assay) | EC50 [1, 3] | other results
1 | CC(C)(F)[C@H](F)CNC(=O)c1cnc(-n2ncc3cc(C#N)cnc32)cc1NC12CC3CC(CC(O)(C3)C1)C2 [Example 636] | 3 nM |  |  | IC50 [1, 2]: 293 nM
2 | CC(C)(O)[C@H](F)CNC(=O)c1cnc(-n2ccc3cc(C#N)cnc32)cc1N[C@H]1CC[C@](C)(O)CC1 [Example 62, 6-(5-cyano-1H-pyrrolo[2,3-b]pyridin-1-yl)-N—((R)-2-fluoro-3-hydroxy-3-methylbutyl)-4-(((trans)-4-hydroxy-4-methylcyclohexyl)amino)nicotinamide] |  | 3.6 nM | 143 nM | 
3 | CC(C)(O)[C@H](F)CNC(=O)c1cnc(-n2ncc3cc(Cl)cnc32)cc1NC1COC1 [Example 551] | 12.6 nM |  |  | IC50 [1, 2]: 212 nM
4 | CC(C)Nc1cc(-n2ccc3cc(C#N)cnc32)ncc1C(=O)NC1CCN(S(C)(=O)=O)CC1 [Example 447] | 5.3 nM |  |  | EC50 [1, 2]: 92 nM
5 | CC(C)Nc1cc(-n2ccc3cc(C#N)cnc32)ncc1C(=O)NCCNC(=O)C(C)(C)O [Example 126, 6-(5-Cyano-1H-pyrrolo[2,3-b]pyridin-1-yl)-N-(2-(2-hydroxy-2-methylpropanamido)ethyl)-4-(isopropylamino)nicotinamide] |  | 7.5 nM | 150 nM | 
6 | CC(C)(O)[C@H](F)CNC(=O)c1cnc(-n2ncc3cc(F)cnc32)cc1NC1CCC(F)C1 (single isomer, unassigned) [Example 619] | 4 nM |  |  | EC50 [1, 4]: 119 nM
7 | CC(C)(O)[C@H](F)CNC(=O)c1cnc(-n2ncc3cc(C#N)cnc32)cc1Nc1cccc(C#N)c1F [Example 528] | 3.3 nM |  |  | EC50 [1, 2]: 91 nM; IC50 [1, 2]: 326 nM
8 | CC(CCO)Nc1cc(-n2ccc3cc(C#N)cnc32)ncc1C(=O)NC[C@@H](F)C(C)(C)O (single isomer, unassigned) [Example 21] |  | 2.3 nM | 51 nM | 
9 | CC(C)(O)[C@H]1CC[C@H](Nc2cc(-n3ncc4cc(C#N)cnc43)ncc2C(=O)NC[C@@H](F)C(C)(C)O)C1 [Example 617] | 2.8 nM |  |  | IC50 [1, 2]: 485 nM
10 | CC1(Nc2cc(-n3ncc4cc(C#N)cnc43)ncc2C(=O)NC[C@@H](F)C(C)(C)O)CC1 [Example 292] |  | 2.7 nM |  | IC50 [1, 3]: 456 nM
11 | CC(C)Nc1cc(-n2ncc3cc(C#N)cnc32)ncc1C(=O)N[C@H]1CC[C@H](S(C)(=O)=O)CC1 [Example 161, 6-(5-cyano-1H-pyrazolo[3,4-b]pyridin-1-yl)-4-(isopropylamino)-N-((trans)-4-(methylsulfonyl)cyclohexyl)nicotinamide] |  | 6.8 nM | 253 nM | 
12 | CC(C)Nc1cc(-n2ccc3cc(CNC(=O)CC(C)(C)C)cnc32)ncc1C(=O)NC[C@@H](F)C(C)(C)O [Example 519] | 2.7 nM |  |  | IC50 [1, 2]: 126 nM
13 | CC(C)(O)[C@H](F)CNC(=O)c1cnc(-n2ncc3cc(C#N)cnc32)cc1NC1CCC(F)CC1 (stereo partly drawn) [Example 163, (R)-6-(5-cyano-1H-pyrazolo[3,4-b]pyridin-1-yl)-N-(2-fluoro-3-hydroxy-3-methylbutyl)-4-((4-fluorocyclohexyl)amino)nicotinamide] |  | 3 nM | 81 nM | 
14 | CC(C)Nc1cc(-n2ncc3cc(C#N)cnc32)ncc1C(=O)NC[C@@H](F)C(C)C [Example 312] |  | 9.2 nM |  | IC50 [1, 3]: 375 nM
15 | CC(C)(O)[C@H](F)CNC(=O)c1cnc(-n2ncc3cc(C#N)cnc32)cc1N[C@@H]1C[C@H]1CO (single isomer, unassigned) [Example 643] | 5.4 nM |  |  | IC50 [1, 4]: 320 nM
16 | CC(C)(O)[C@H](F)CNC(=O)c1cnc(-n2ccc3cc(C#N)cnc32)cc1Nc1cccc(NS(C)(=O)=O)c1 [Example 57, (R)-6-(5-cyano-1H-pyrrolo[2,3-b]pyridin-1-yl)-N-(2-fluoro-3-hydroxy-3-methylbutyl)-4-((3-(methylsulfonamido)phenyl)amino) nicotinamide] |  | 1.5 nM | 173 nM | 
17 | COC1CCC(O)(CCNC(=O)c2cnc(-n3ncc4cc(C#N)cnc43)cc2NC(C)C)CC1 (stereo not shown) [Example 291] |  | 3.5 nM |  | IC50 [1, 3]: 349 nM
18 | CC(C)Nc1cc(-n2ccc3cc(C#N)cnc32)ncc1C(=O)NC[C@@H](F)C(C)NC(C)C (single isomer, unassigned) [Example 129] |  | 4.1 nM |  | EC50 ([1]; PBMC TLR2 Induced IL-6 Assay, lipoteichoic acid stimulation): 451 nM
19 | CC(C)(O)[C@H](F)CNC(=O)c1cnc(-n2ncc3cc(Cl)cnc32)cc1Nc1cnn(CC(F)(F)F)c1 [Example 354] |  | 1.9 nM |  | IC50 [1, 3]: 115 nM

Row | Compound | IC50 (IRAK4; IRAK4 0.6 nM) | IC50 (IRAK4; IRAK4 Inhibition Assay) | EC50 [1, 3] | other results
20 | CCCCNC(=O)c1cnc(-n2ncc3cc(C#N)cnc32)cc1N[C@@H](C)CO [Example 319] |  | 6.5 nM |  | IC50 [1, 3]: 191 nM
21 | CC(C)(O)CCNC(=O)c1cnc(-n2ccc3cncnc32)cc1NC1CCOCC1 [Example 43, N-(3-hydroxy-3-methylbutyl)-6-(7H-pyrrolo[2,3-d]pyrimidin-7-yl)-4-((tetrahydro-2H-pyran-4-yl)amino)nicotinamide] |  | 6 nM | 316 nM | 
22 | CCOC(=O)NCc1cnc2c(ccn2-c2cc(NC(C)C)c(C(=O)NC[C@@H](F)C(C)(C)O)cn2)c1 [Example 501] | 5.4 nM |  |  | IC50 [1, 2]: 332 nM
23 | CCC(O)(CC)[C@H](F)CNC(=O)c1cnc(-n2ncc3cncnc32)cc1NC(C)C [Example 149, (R)—N-(3-ethyl-2-fluoro-3-hydroxypentyl)-4-(isopropylamino)-6-(1H-pyrazolo[3,4-d]pyrimidin-1-yl)nicotinamide] |  | 9.3 nM | 239 nM | 
24 | CC(C)Nc1cc(-n2ncc3cnc(NC[C@@H](F)C(C)(C)O)nc32)ncc1C(=O)NC[C@@H](F)C(C)(C)O [Example 334] |  | 18.5 nM | 460 nM | 
25 | CC(C)Nc1cc(-n2ncc3cc(C#N)cnc32)ncc1C(=O)NCC(F)(F)C(C)(C)O [Example 167, 6-(5-Cyano-1H-pyrazolo[3,4-b]pyridin-1-yl)-N-(2,2-difluoro-3-hydroxy-3-methylbutyl)-4-(isopropylamino)nicotinamide] |  | 10.5 nM | 171 nM | 
26 | C[C@H](Nc1cc(-n2ccc3cc(C#N)cnc32)ncc1C(=O)NC[C@@H](F)C(C)(C)O)C1CC1 [Example 451] | 4.4 nM |  |  | EC50 [1, 2]: 429 nM
27 | CC(C)(O)[C@H](F)CNC(=O)c1cnc(-n2ccc3cc(C#N)cnc32)cc1NC1CCCC(CO)C1 (single isomer, unassigned) [Example 445] | 5.3 nM |  |  | EC50 [1, 2]: 108 nM
28 | C[C@@H](F)CNc1cc(-n2ccc3cc(C#N)cnc32)ncc1C(=O)NC[C@@H](F)C(C)(C)O [Example 506] | 1.5 nM |  |  | IC50 [1, 2]: 65 nM
29 | C[C@H](F)CNc1cc(-n2ncc3cc(C#N)cnc32)ncc1C(=O)NC[C@@H](F)C(C)(C)O [Example 583] | 4.1 nM |  |  | IC50 [1, 2]: 188 nM
30 | CC(C)Nc1cc(-n2ccc3cc(Cl)ccc32)ncc1C(=O)NC[C@@H](F)C(C)(C)O [Example 37, (R)-6-(5-chloro-1H-indol-1-yl)-N-(2-fluoro-3-hydroxy-3-methylbutyl)-4-(isopropylamino)nicotinamide] |  | 11.8 nM | 1230 nM | 
31 | CC(C)C(O)CNc1cc(-n2ncc3cc(Cl)cnc32)ncc1C(=O)NC[C@@H](F)C(C)(C)O (single isomer, unassigned) [Example 596] | 18.2 nM |  |  | IC50 [1, 4]: 578 nM
32 | CC(C)(O)[C@H](F)CNC(=O)c1cnc(-n2cnc3cc(Cl)cnc32)cc1Nc1cnn(CC(F)(F)F)c1 [Example 360] |  | 1.5 nM |  | IC50 [1, 3]: 376 nM
33 | CC(C)(O)[C@H](F)CNC(=O)c1cnc(-n2ncc3cc(C#N)cnc32)cc1N[C@H]1CC[C@H](NC2COC2)CC1 [Example 622] | 5.2 nM |  |  | IC50 [1, 2]: 132 nM
34 | C[C@@H](CO)Nc1cc(-n2ccc3cc(C#N)cnc32)ncc1C(=O)NC[C@@H](F)C(C)(C)O [Example 9, 6-(5-cyano-1H-pyrrolo[2,3-b]pyridin-1-yl)-N—((R)-2-fluoro-3-hydroxy-3-methylbutyl)-4-(((S)-1-hydroxypropan-2-yl)amino) nicotinamide] |  | 1.5 nM | 57 nM | IC50 [1, 3]: 43 nM
35 | CC(C)Nc1cc(-n2ccc3cc(C#N)cnc32)ncc1C(=O)N[C@H]1CC[C@](O)(c2cccnc2)CC1 [Example 177, 6-(5-cyano-1H-pyrrolo[2,3-b]pyridin-1-yl)-N-((1s,4s)-4-hydroxy-4-(pyridin-3-yl)cyclohexyl)-4-(isopropylamino)nicotinamide] |  | 3.6 nM | 352 nM | 
36 | CC(C)(O)[C@H](F)CNC(=O)c1cnc(-n2cnc3cc(Cl)cnc32)cc1NC1COC1 [Example 340] |  | 10 nM | 536 nM | 
37 | CC(C)(O)[C@H](F)CNC(=O)c1cnc(-n2ccc3cncnc32)cc1NC1CCOCC1 [Example 40, (R)—N-(2-fluoro-3-hydroxy-3-methylbutyl)-6-(7H-pyrrolo[2,3-d]pyrimidin-7-yl)-4-((tetrahydro-2H-pyran-4-yl)amino)nicotinamide] |  | 2 nM | 175 nM | IC50 [1, 3]: 175 nM
38 | CC(C)Nc1cc(-n2ncc3cc(Br)cnc32)ncc1C(=O)NC[C@@H](F)C(C)(C)O [Example 158, (R)-6-(5-Bromo-1H-pyrazolo[3,4-b]pyridin-1-yl)-N-(2-fluoro-3-hydroxy-3-methylbutyl)-4-(isopropylamino)nicotinamide] |  | 4.2 nM | 127 nM | 
